Laboratory results as given in patent publication US12643871B2, “Aryl formamide compound containing chiral sulfur oxide or salt thereof, preparation method, herbicidal composition and use thereof” (Qingdao Kingagroot Chemical Compound Co., Ltd., priority 2019, dated 2026).

How the values were obtained:
Format in all cases: in vivo
[1] = tested on: Leptochloa chinensis; assay: Comparison experiment (post-emergence) against racemate / S configuration; settings: 3-4 weeks after sowing, 4-5 leaf-stage of weed; for Results of comparison experiment, Leptochloa chinensis (60 g/ha): 25DAA
Description: (§1) The above growth control rates are fresh weight control rates.
(§2) Experiment on weeding effect in post-emergence stage: monocotyledonous and dicotyledonous weed seeds (Descurainia sophia, Capsella bursa-pastoris, Galium aparine, Stellaria media, Lithospermum arvense, Rorippa indica, Alopecurus aequalis, Beckmannia syzigachne, Sclerochloa dura, Phleum paniculatum, Bromus japonicus, Aegilops tauschii, Phalaris arundinacea, Amaranthus retroflexus, Chenopodiaceae, Commelina communis, Sonchus arvensis, convolvulus arvensis, Cirsium setosum, Solanum nigrum, Acalypha australis, Digitaria sanguinalis, Echinochloa crusgalli, Setaria viridis, Setaria glauca, Leptochloa chinensis, Monochoria vaginalis, Sagittaria trifolia, Scirpus juncoides, Cyperus rotundus, Cyperus iria, Cyperus difformis, Fimbristylis, Portulaca oleracea, Xanthium sibiricum, Pharbitis nil) and major crop seeds (wheat, corn, rice, soybean, cotton, oilseed rape, millet, sorghum, potato, sesame, ricinus) were placed in plastic pots filled with soil, then covered with 0.5-2 cm of soil, allowed to grow in a good greenhouse environment. […] The tested compounds of the present invention were respectively dissolved in acetone, then added with Tween 80 and 1.5 liter/ha of emulsifiable concentrate of methyl oleate as synergist, diluted with a certain amount of water to obtain a solution with a certain concentration, and sprayed with a spray tower onto the plants. […]
(§3) If there is no clear marker, the post-seedling test conditions are the same as above, and the experimental results are shown in Tables 4-7.

[2] = tested on: Green Setaria viridis; assay: as above; settings: 3-4 weeks after sowing, 4-5 leaf-stage of weed; for Results of comparison experiment, Green Setaria viridis (60 g/ha): 25DAA
Description: as §1, §2, §3

[3] = tested on: Abutilon theophrasti; assay: as above; settings: 30 g/ha; 3-4 weeks after sowing, 4-5 leaf-stage of weed, 25DAA
Description: as §1, §2, §3

[4] = tested on: Rice(Longyang 16); assay: Comparison experiment (post-emergence), crop safety on direct seeding rice; settings: 1.5-2 leaf-stage of direct seeding rice variety Longyang 16, 25 DAA
Description: as §1
(§4) Experiment on weeding effect in post-emergence stage: monocotyledonous and dicotyledonous weed seeds (Descurainia sophia, Capsella bursa-pastoris, Galium aparine, Stellaria media, Lithospermum arvense, Rorippa indica, Alopecurus aequalis, Beckmannia syzigachne, Sclerochloa dura, Phleum paniculatum, Bromus japonicus, Aegilops tauschii, Phalaris arundinacea, Amaranthus retroflexus, Chenopodiaceae, Commelina communis, Sonchus arvensis, convolvulus arvensis, Cirsium setosum, Solanum nigrum, Acalypha australis, Digitaria sanguinalis, Echinochloa crusgalli, Setaria viridis, Setaria glauca, Leptochloa chinensis, Monochoria vaginalis, Sagittaria trifolia, Scirpus juncoides, Cyperus rotundus, Cyperus iria, Cyperus difformis, Fimbristylis, Portulaca oleracea, Xanthium sibiricum, Pharbitis nil) and major crop seeds (wheat, corn, rice, soybean, cotton, oilseed rape, millet, sorghum, potato, sesame, ricinus) were placed in plastic pots filled with soil, then covered with 0.5-2 cm of soil, allowed to grow in a good greenhouse environment. After 2 weeks of sowing, the test plants were treated in the 2 leaf stage. The tested compounds of the present invention were respectively dissolved in acetone, then added with Tween 80 and 1.5 liter/ha of emulsifiable concentrate of methyl oleate as synergist, diluted with a certain amount of water to obtain a solution with a certain concentration, and sprayed with a spray tower onto the plants. After the application, the plants were cultured for 15 days in the greenhouse, and then the experimental results of the weeding were counted. The doses of the used compounds were 500, 250, 125, 60, 30, 15 g/ha, and the averages were obtained by repeating for three times.
as §3
Longyang 16 is an important cultivated variety representative of long-grain fragrant rice in northeast China. Long-grain fragrant rice is sensitive to herbicides and prone to drug damage, especially HPPD herbicides such as mesotrione and benzobicylon. […] It was not consistent with the well-known structure-activity relationship that aryloxyphenoxypropionic acid herbicides and phenoxypropionic acid herbicides in effective form have high activity to weeds and heavy damage to crops, and in ineffective form have almost no activity.

[5] = tested on: Digitaria sanguinalis; assay: Comparison experiment (post-emergence) against racemate / S configuration; settings: 30 g/ha, 3-4 weeks after sowing, 4-5 leaf-stage of weed, 25DAA; for pest or weed control at 30 g/ha: Digitaria sanguinalis, post-emergence, 600 h
[6] = tested on: Amaranthus retroflexus; assay: Weeding effect in post-emergence stage; settings: 250 g/ha; 2 leaf stage; 15 days after application; fresh weight control rate
How it was run: (§5)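 Post-emergence spray, 2-leaf stage; doses 500–15 g/ha; acetone + Tween 80 + methyl oleate EC (1.5 L/ha) as synergist. Greenhouse 15 d. Readout: fresh weight control rate graded levels 0–5 (5 = above 85%, 0 = below 5%); triplicate means.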

[7] = tested on: Digitaria sanguinalis; assay: Weeding effect in post-emergence stage; settings: 250 g/ha; 2 leaf stage; 15 days after application; fresh weight control rate
How it was run: as §5

[8] = tested on: Abutilon theophrasti; assay: Weeding effect in post-emergence stage; settings: 250 g/ha; 2 leaf stage; 15 days after application; fresh weight control rate
How it was run: as §5

[9] = tested on: Echinochloa crusgali; assay: Weeding effect in post-emergence stage; settings: 250 g/ha; 2 leaf stage; 15 days after application; fresh weight control rate
How it was run: as §5

[10] = tested on: Setaria viridis; assay: Weeding effect in post-emergence stage; settings: 250 g/ha; 2 leaf stage; 15 days after application; fresh weight control rate
How it was run: as §5

[11] = tested on: rice and other crops; assay: Comparison experiment (post-emergence, Tables 4-7), crop safety; settings: dose of 125, 60, 30, 15 g/ha
Description: as §1, §4, §3

[12] = tested on: key weeds such as Digitaria sanguinalis, Leptochloa chinensis; assay: Comparison experiment (post-emergence, Tables 4-7), herbicidal activity on weeds not listed separately; settings: dose of 125, 60, 30, 15 g/ha
How it was run: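 Weeds sown in soil-filled pots, covered with 0.5-2 cm soil and grown in greenhouse; sprayed at 2-leaf stage (2 weeks after sowing) with compound in acetone/Tween 80 plus 1.5 liter/ha methyl oleate concentrate. Doses 500–15 g/ha; fresh weight control rated after 15 days, mean of three repeats.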

| SMILES | Results of comparison experiment, Leptochloa chinensis (60 g/ha) [1] [%] | Results of comparison experiment, Leptochloa chinensis (125 g/ha) ([1]; 125 g/ha, 25 DAA (Table 5)) [%] | Results of comparison experiment, Green Setaria viridis (30 g/ha) ([2]; 30 g/ha, 25 DAA (Table 5)) [%] | Results of comparison experiment, Green Setaria viridis (60 g/ha) [2] [%] | Results of comparison experiment, Abutilon theophrasti (30 g/ha) [3] [%] | Results of comparison experiment, Rice(Longyang 16) (250 g/ha) ([4]; 250 g/ha) [%] | Results of comparison experiment, Rice(Longyang 16) (500 g/ha) ([4]; 500 g/ha) [%] | Results of comparison experiment, Digitaria sanguinalis (30 g/ha) [5] [%] | pest or weed control at 30 g/ha [5] [%] | weeding effect in post-emergence stage, activity level (growth control rate), Amaranthus retroflexus [6] | weeding effect in post-emergence stage, activity level (growth control rate), Digitaria sanguinalis [7] | weeding effect in post-emergence stage, activity level (growth control rate), Abutilon theophrasti [8] | weeding effect in post-emergence stage, activity level (growth control rate), Echinochloa crusgali [9] | weeding effect in post-emergence stage, activity level (growth control rate), Setaria viridis [10] | safety to rice and other crops compared with the corresponding racemate or S configuration [11] | activity to key weeds such as Digitaria sanguinalis, Leptochloa chinensis compared with the corresponding racemate or S configuration [12] |
| --- | --- | --- | --- | --- | --- | --- | --- | --- | --- | --- | --- | --- | --- | --- | --- | --- |
| CCC[S+]([O-])c1c(C(F)(F)F)ccc(C(=O)Nc2nnc(C)o2)c1F (single isomer, unassigned) [Control Compound B] | 30 | 80 | 10 | 90 | 90 | 5 | 15 | 80 | – | – | – | – | – | – | – | – |
| Cc1nnc(NC(=O)c2ccc(C(F)F)c([S+](C)[O-])c2F)o1 (centres unmarked) [Control Compound E] | 10 | – | – | 25 | 60 | – | – | – | 5 | – | – | – | – | – | – | – |
| Cc1nnc(NC(=O)c2ccc(C(F)(F)F)c([S+](C)[O-])c2F)o1 (single isomer, unassigned) [Control Compound C] | 0 | – | – | 20 | 60 | – | – | – | 0 | – | – | – | – | – | – | – |
| Cc1nnc(NC(=O)c2ccc(C(F)(F)F)c([S+](C)[O-])c2F)o1 (single isomer, unassigned) [Control Compound D] | 0 | – | – | 10 | 50 | – | – | 0 | – | – | – | – | – | – | – | – |
| Cc1nnc(NC(=O)c2ccc(C(F)(F)F)c([S@@+](C)[O-])c2F)o1 [Compound 1] | 70 | – | – | 80 | 100 | – | – | 90 | – | 5 (Level 5: growth control rate is above 85%) | 3 (Level 3: growth control rate is greater than or equal to 40% and less than 60%) | 5 (Level 5: growth control rate is above 85%) | 5 (Level 5: growth control rate is above 85%) | 3 (Level 3: growth control rate is greater than or equal to 40% and less than 60%) | – | – |
| CCC[S@@+]([O-])c1c(C(F)F)ccc(C(=O)Nc2nnc(C)o2)c1F [Compound 637] | 90 | – | – | 100 | 100 | – | – | – | 100 | 5 (Level 5: growth control rate is above 85%) | 5 (Level 5: growth control rate is above 85%) | 5 (Level 5: growth control rate is above 85%) | 5 (Level 5: growth control rate is above 85%) | 5 (Level 5: growth control rate is above 85%) | higher safety | better activity |
| CC(C)=NOCC[S@@+]([O-])c1c(C(F)(F)F)ccc(C(=O)Nc2nnc(C)o2)c1F [Compound 166] | – | – | – | – | – | – | – | – | – | 5 (Level 5: growth control rate is above 85%) | 5 (Level 5: growth control rate is above 85%) | 5 (Level 5: growth control rate is above 85%) | 5 (Level 5: growth control rate is above 85%) | 5 (Level 5: growth control rate is above 85%) | higher safety | better activity |
| CCC[S@@+]([O-])c1c(C(F)F)ccc(C(=O)Nc2nnc(C)o2)c1Cl [Compound 617] | – | – | – | – | – | – | – | – | – | 5 (Level 5: growth control rate is above 85%) | 5 (Level 5: growth control rate is above 85%) | 5 (Level 5: growth control rate is above 85%) | 5 (Level 5: growth control rate is above 85%) | 5 (Level 5: growth control rate is above 85%) | higher safety | better activity |
| Cc1nnc(NC(=O)c2ccc(C(F)(F)F)c([S@+]([O-])CCC#N)c2F)o1 [Compound 52] | – | – | – | – | – | – | – | – | – | 5 (Level 5: growth control rate is above 85%) | 5 (Level 5: growth control rate is above 85%) | 5 (Level 5: growth control rate is above 85%) | 5 (Level 5: growth control rate is above 85%) | 5 (Level 5: growth control rate is above 85%) | higher safety | better activity |
| Cc1nnc(NC(=O)c2ccc(C(F)(F)F)c([S@+]([O-])CCO)c2F)o1 [Compound 54] | – | – | – | – | – | – | – | – | – | 5 (Level 5: growth control rate is above 85%) | 5 (Level 5: growth control rate is above 85%) | 5 (Level 5: growth control rate is above 85%) | 5 (Level 5: growth control rate is above 85%) | 5 (Level 5: growth control rate is above 85%) | higher safety | better activity |
